Results reported in publication PMC10252614 (International Journal of Molecular Sciences, 2023).

Columns and labels:
hMAO-B [1] = target: T1, hMAO-B (Homo sapiens, UniProt P27338); test: in vitro inhibition of hMAO-B, kynuramine fluorescence assay; format: biochemical
T1 construct: purchased Merck (Prague, Czech Republic)
T1 sequence (P27338 1-520): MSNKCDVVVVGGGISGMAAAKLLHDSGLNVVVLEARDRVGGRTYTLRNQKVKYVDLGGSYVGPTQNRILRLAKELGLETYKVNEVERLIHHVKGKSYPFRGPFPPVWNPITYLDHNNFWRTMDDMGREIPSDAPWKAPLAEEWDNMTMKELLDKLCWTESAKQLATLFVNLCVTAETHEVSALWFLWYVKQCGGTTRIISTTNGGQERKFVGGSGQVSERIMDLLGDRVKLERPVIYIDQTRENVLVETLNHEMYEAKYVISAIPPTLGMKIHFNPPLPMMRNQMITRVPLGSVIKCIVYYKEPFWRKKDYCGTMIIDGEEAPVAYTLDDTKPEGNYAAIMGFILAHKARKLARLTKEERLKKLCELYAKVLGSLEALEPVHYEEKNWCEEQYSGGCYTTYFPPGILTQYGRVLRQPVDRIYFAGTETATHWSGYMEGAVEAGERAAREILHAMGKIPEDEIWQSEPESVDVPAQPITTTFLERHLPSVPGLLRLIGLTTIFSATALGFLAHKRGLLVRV
Procedure: The hMAO-A and hMAO-B enzymes were purchased from Merck (Prague, Czech Republic). […] The mixture was pre-incubated at 37 °C for 15 min and subsequently substrate kynuramine was added to the final concentration of 100 µM. The final volume of reaction mixture was 0.1 mL. The whole reaction mixture was incubated at 37 °C for 30 min. The reaction was stopped by the addition of 20 µL 4M NaOH.

[2] = PAMPA prediction of BBB permeability; format: in vitro ADME; conditions: for CNS (+/−): PAMPA class; for Papp: read-out: Pe ± SEM
Procedure: The assay validation was performed using standard compounds whose CNS status is experimentally known from in vivo conditions.
PAMPA (the parallel artificial membrane-permeability assay) is a high-throughput screening tool applicable for prediction of the passive transport of potential drugs across the blood–brain barrier (BBB). In this study, it was used as a non-cell-based in vitro assay carried out in a coated 96-well membrane filter. The filter membrane of the donor plate was coated with PBL (Polar Brain Lipid, Avanti, USA) in dodecane (4 µL of 20 mg/mL PBL in dodecane) and the acceptor well was filled with 300 µL of PBS (pH 7.4; VA). The tested compounds were dissolved first in DMSO and subsequently diluted with PBS (pH 7.4) to final concentrations of 50–100 μM in the donor wells. […] About 300 µL of the donor solution was added to the donor wells (VD) and the donor filter plate was carefully put on the acceptor plate so that the coated membrane was “in touch” with both the donor solution and acceptor buffer. In principle, the test compound diffused from the donor well through the lipid membrane (Area = 0.28 cm^2) to the acceptor well. The concentration of the drug in both the donor and acceptor wells were assessed after 3, 4, 5, and 6 h of incubation in quadruplicate using the UV plate reader Spark (Tecan Group Ltd., Männedorf, Switzerland) at the maximum absorption wavelength of each compound. In addition, the solution of the theoretical compound concentration, simulating the equilibrium state established if the membrane were ideally permeable, was prepared and assessed as well.

hMAO-B [3] = target: T1, hMAO-B; test: hMAO-B inhibition mechanism: dialysis reversibility and kinetics; format: biochemical; conditions: for mode of hMAO-B inhibition: non-linear regression according to Michaelis–Menten
Procedure: (§1) The MAOs were subsequently incubated with selected compounds at different concentrations and evaluated by non-linear regression according to Michaelis–Menten (Figure 5).
(§2) Inhibition mechanism was determined by non-linear regression and the double reciprocal method by Lineweaver–Burk using GraphPad Prism 8.2 software. […] The recovery of enzyme activity was determined using the above-mentioned protocol.

hMAO-A = target: T2, hMAO-A (Homo sapiens, UniProt P21397); test: hMAO-A inhibition mechanism: dialysis reversibility and kinetics; format: biochemical; conditions: non-linear regression according to Michaelis–Menten
T2 construct: purchased Merck (Prague, Czech Republic)
T2 sequence (P21397 1-527): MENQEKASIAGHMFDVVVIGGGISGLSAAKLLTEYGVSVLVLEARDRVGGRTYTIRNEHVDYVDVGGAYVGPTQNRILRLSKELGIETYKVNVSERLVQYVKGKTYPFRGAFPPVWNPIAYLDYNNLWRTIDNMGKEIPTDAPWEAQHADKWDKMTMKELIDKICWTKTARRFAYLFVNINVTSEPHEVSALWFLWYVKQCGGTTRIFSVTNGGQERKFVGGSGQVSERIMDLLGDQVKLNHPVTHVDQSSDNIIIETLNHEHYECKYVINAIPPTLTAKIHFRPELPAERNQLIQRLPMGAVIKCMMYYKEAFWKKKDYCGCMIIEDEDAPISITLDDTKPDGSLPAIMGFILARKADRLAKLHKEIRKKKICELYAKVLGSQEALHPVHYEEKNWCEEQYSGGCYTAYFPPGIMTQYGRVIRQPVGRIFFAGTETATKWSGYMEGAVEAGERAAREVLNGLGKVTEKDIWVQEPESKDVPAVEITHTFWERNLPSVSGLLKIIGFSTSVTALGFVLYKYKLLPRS
Procedure: as §1, §2

SH-SY5Y cells = test: nuclear condensation and fragmentation, Hoechst 33258 assay; format: cell-based, human; conditions: 100 µM, 24 h
Procedure: Thus, SH-SY5Y cells were incubated with II-6h and III-6a (10 and 100 µM) for 24 h. After the treatment, dehydrogenase activity, glutathione levels, nuclear condensation and fragmentation, and ATP levels were measured (Figure 7). […] The decrease in dehydrogenase activity was found in cells treated with 100 µM II-6h (p < 0.001).
To measure nuclear condensation and fragmentation in intact cells, we used fluorescence dye Hoechst 33258 (H33258, 1 mg/mL; Merck, USA). After cell treatment with II-6h (10–100 µM) and III-6a (10–100 µM), the cells grown in a 96-well plate were centrifuged (5 min; 8000g; RT). Then, 70 µL of a supernatant was replaced with 70 µL of PBS 1× and 10 µL of H33258 solution was added to a well. The final concentrations of H33258 in a well was 2 µg/mL. Then, the cells were incubated with H33258 for 5 min and spectrofluorometric measurement was performed at Ex/Em = 352/461 nm using SPARK microplate reader (Tecan, Austria) while incubated at 37 °C. The samples were measured at least in triplicates. After background subtraction, the fluorescence signal was presented in RFU as mean ± SEM.

Compound: C#CCN(C)c1nc(NCCCC)c2ccccc2n1 [I-6e, N4-butyl-N2-methyl-N2-(prop-2-yn-1-yl)quinazoline-2,4-diamine]
- selectivity profile hMAO-A vs hMAO-B (in words) (hMAO-B [1]): hMAO-A selective inhibitors
- BBB penetration by PAMPA (in words) [2]: high probability of crossing BBB via passive diffusion
- CNS (+/−) [2]: CNS (+) (CNS (+) (high BBB permeation predicted): Pe (×10^−6 cm s^−1) > 4.0)
- Papp ([2]; PAMPA, PBS pH 7.4): 7.37 ± 1.22 ×10⁻⁶ cm/s

Compound: C#CCN(C)c1nc(NC2CCCCC2)c2ccccc2n1 [I-6h, N4-cyclohexyl-N2-methyl-N2-(prop-2-yn-1-yl)quinazoline-2,4-diamine]
- IC50 (hMAO-B [1]): 8.69 ± 0.12 µM
- selectivity profile hMAO-A vs hMAO-B (in words) (hMAO-B [1]): inhibitor of both hMAO isoforms, with a preference for hMAO-B inhibition
- SI for MAO-B (hMAO-B [1]; IC50(MAO-A)/IC50(MAO-B)): 0.10
- BBB penetration by PAMPA (in words) [2]: high probability of crossing BBB via passive diffusion
- CNS (+/−) [2]: CNS (+) (CNS (+) (high BBB permeation predicted): Pe (×10^−6 cm s^−1) > 4.0)
- Papp ([2]; PAMPA, PBS pH 7.4): 5.61 ± 1.01 ×10⁻⁶ cm/s
- mode of hMAO-B inhibition (hMAO-B [3]): mixed mode inhibition
- mode of hMAO-A inhibition (hMAO-A): mixed mode inhibition

Compound: C#CCN(C)c1nc(NC2CCCCC2)c2ccc(Cl)cc2n1 [II-6h, 7-chloro-N4-cyclohexyl-N2-methyl-N2-(prop-2-yn-1-yl)quinazoline-2,4-diamine]
- IC50 (hMAO-B [1]): 0.33 ± 0.02 µM
- selectivity profile hMAO-A vs hMAO-B (in words) (hMAO-B [1]): hMAO-B selective inhibitors
- nuclear condensation and fragmentation (in words) (SH-SY5Y cells): significant increase
- BBB penetration by PAMPA (in words) [2]: high probability of crossing BBB via passive diffusion
- CNS (+/−) [2]: CNS (+) (CNS (+) (high BBB permeation predicted): Pe (×10^−6 cm s^−1) > 4.0)
- Papp ([2]; PAMPA, PBS pH 7.4): 9.39 ± 1.17 ×10⁻⁶ cm/s
- mode of hMAO-B inhibition (hMAO-B [3]): mixed mode inhibition
- reversible/irreversible inhibitory action towards hMAO-B (hMAO-B [3]; recovery of enzyme activity after dialysis): only a partial recovery

Compound: C#CCN(C)c1nc(N)c2cc(OC)ccc2n1 [III-6a, 6-methoxy-N2-methyl-N2-(prop-2-yn-1-yl)quinazoline-2,4-diamine]
- selectivity profile hMAO-A vs hMAO-B (in words) (hMAO-B [1]): hMAO-A selective inhibitors
- nuclear condensation and fragmentation (in words) (SH-SY5Y cells): significant increase
- BBB penetration by PAMPA (in words) [2]: did not penetrate the artificial barrier
- CNS (+/−) [2]: CNS (−) (CNS (−) (low BBB permeation predicted): Pe (×10^−6 cm s^−1) < 2.0)
- Pe ± SEM ([2]; PAMPA, PBS pH 7.4): 0 ×10⁻⁶ cm/s
- mode of hMAO-A inhibition (hMAO-A): mixed mode inhibition
